Laboratory results: patent publication US20250049885A1, “HYALURONIC ACID BINDING PEPTIDE AS A THERAPEUTIC TO CONTROL FIBROBLAST ACTIVATION AND FIBROTIC CAPSULE FORMATION” (SOUTH DAKOTA BOARD OF REGENTS, priority 2023, published 2025)
Ends that are not written are not given here.

Tests used:
[1] = Live/Dead fluorescent staining of fibroblasts cultured on functionalized surfaces; assay type: cell-based, human; settings: human; fibroblasts cultured on functionalized surface; read-out: Cell viability (Live/Dead)
Procedure: (§1) FIGS. 2A-C depict assessment of the cytocompatibility of the peptide treated surfaces using Live/Dead and PrestoBlue assays. Presto Blue assay is a measure of cellular metabolic activity. FIG. 2A is a color image of a cell culture: Calcein-AM (green) and Propidium Iodide (red) were used to stain for live and dead cells respectively.
(§2) Surface functionalization was done with 2% APTMS and 1 mM HABP. 2% APTMS (in 2-propanol) was treated on the surface for 6 hours in a wet chamber at room temperature. Following the end of the culture period, three washes with DI H2O were used to remove the residual APTMS. A 1 mM HABP in DI H2O solution was added to the surface and left overnight at 4° C. in the wet chamber. After the peptide treatment is completed, the surfaces were rinsed 5 times with PBS for 5 minutes each. These functionalized surfaces were used for HA binding verification and cell seeding experiments. Two other experimental groups were established: one with only the APTMS treatment, and one with no surface treatment (Table 2).
(§3) Human primary dermal fibroblasts (HDFs) were cultured in a culture media consisting of DMEM, 10% fetal bovine serum (FBS), and 1% penicillin-streptomycin (10,000 IU/mL). The cells were rinsed with warm 1×PBS to remove any traces of FBS from the surface, and a 0.25% trypsin/EDTA treatment was used to detach the cells from the culture flask at 37° C. for 5 minutes. 4 mL of fresh media was added to the cells to inhibit the trypsin, and the suspended cells were withdrawn from the flask, counted using a hemocytometer, and added to a 15 ml centrifuge tube. The cells were centrifuged for 5 minutes at 1500 rpms, and the media was withdrawn and replaced with a calculated amount of fresh media in which the cells were resuspended. The cells were added to the functionalized MatTek surfaces, and after 6 hours, 2 mL of media containing 100 μg/mL ascorbic acid was added. The cells were cultured for 48-96 hours before further experimentation was conducted. […]

[2] = tested on: normal human adult primary dermal fibroblasts; test: as above; assay type: cell-based
Procedure: as §1, §2, §3

[3] = tested on: primary dermal fibroblasts; test: Cell morphology and alignment on functionalized surfaces (brightfield); assay type: cell-based, human; settings: vs cells on the other surface groups
Procedure: FIGS. 3A-B depicts primary dermal fibroblasts seeded at 50.000 cells/154 mm^2 and incubated for 10 days on HABP and Scrambled HABP functionalized surfaces. APTMS surfaces were treated with 2% APTMS only and Untreated surfaces had no treatment other than PBS rinse. […] Decellularization occurred on Day 11. (Representative of average and standard deviation; N=3; scale bar represents 100 μm). […] (Representative of average and standard deviation; N=6).
APTMS functionalized and untreated experimental groups were established.
Untreated and HABP functionalized surfaces did have some fibroblasts with higher levels of alignment, but the majority of fibroblast cells in those groups maintained a similar distribution of alignment to the APTMS cultures.

[4] = tested on: Col1 fibers deposited by dermal fibroblasts; test: Type I Collagen immunostaining and fiber analysis (CT-Fire); assay type: cell-based, human; settings: p-value<0.01
Description: FIGS. 5A-G show Type I Collagen immunostaining results. FIG. 5A is a color cell culture stain: Fluorescent images of Col1 at 20× magnification. The scale bar represents 100 μm. FIG. 5B is a color image showing CT-Fire overlays of Col1 fibers from the above images, where different fiber characteristics are shown via different coloration. FIG. 5C is a graphical representation of the distribution of the number of Col1 fibers in each treatment group. FIG. 5D is a graphical representation of the distribution of Col1 fiber lengths in each treatment group. There is a notable difference between the APTMS group and the Untreated and HABP groups. FIG. 5E is a graphical representation of the measurement of fiber straightness. […] The closer the value is to one, the straighter individual fibers within the treatment groups are. FIG. 5F is a graphical representation of the Col1 fiber width comparison between treatment groups. […]
Immunostaining was done using α-SMA (D4K9N, Cell Signal) and Type I collagen primary antibodies. […] After this point, all further staining was conducted in the dark to preserve fluorescence. […]
Immunostaining for Type I Collagen (Col1) was done to determine the impact of the HABP surface treatment on ECM formation. […] Col1 fibers were analyzed and the analysis found significant differences in fiber angle, straightness, and width.

Row | Compound | viability [1] | Cell viability vs control groups (Live/Dead) ([2]; HABP vs APTMS treated and untreated surfaces) | Cell viability (Live/Dead) ([2]; fibroblasts cultured on functionalized surface) | Cell morphology [3] | Col1 fiber width narrower than untreated cultures [4]
1 | GAHWQFNALTVR [HABP, GAHWQFNALTVR] | 98.9% | no significant difference | 98.9% |  | 
2 | CO[Si](CCCN)(OC)OC [APTMS, 3-aminopropyltrimethoxysilane] |  |  |  | slightly stressed morphology | 5%
